This note sets out measurements from US4492757A, “Process for preparing L-threonine” (Denki Kagaku Kogyo Kabushiki Kaisha, priority 1981, dated 1985).

One assay relates to D-threonine-aldolase. Kind of assay: Agents inhibiting, activating or stabilizing the activity of the novel enzyme. The format is biochemical.
Another assay deals with L-allothreonine-aldolase. The assay can be described thus: Inhibitants, stabilizers and coenzyme of L-allothreonine-aldolase. The format is biochemical.

On to `[Zn+2]` [Zn^2+], for which, in the assay with D-threonine-aldolase, the “effect of the agent on the activity of the novel enzyme” value (“effect … of the novel enzyme” for short) was “inhibited”.
For the compound `NO` [hydroxylamine], the “effect … of the novel enzyme” value in the assay on D-threonine-aldolase is reported as “inhibited”.
Regarding `O[C@H](CS)[C@H](O)CS` (racemic) [dithiothreitol], the “effect … of the novel enzyme” value with D-threonine-aldolase is “activated and stabilized”. In addition, in the assay on L-allothreonine-aldolase, the “effect of the agent on L-allothreonine-aldolase” value is “Stabilizers”.
For `[Pd+2]` [Pd^2+], the “effect … of the novel enzyme” value in the assay with D-threonine-aldolase is given as “inhibited”.
In the case of `OCCS` [mercaptoethanol], the “effect … of the novel enzyme” value in the assay with D-threonine-aldolase was “activated and stabilized”. For the same compound, the “effect of the agent on L-allothreonine-aldolase” value with L-allothreonine-aldolase was “Stabilizers”.
`[Hg+2]` [Hg^2+]: the “effect … of the novel enzyme” value in the assay with D-threonine-aldolase is given as “inhibited”. The “effect of the agent on L-allothreonine-aldolase” value with L-allothreonine-aldolase is “Inhibitants”.
For the compound `O=S([O-])O.[Na+]` [sodium hydrogen sulfite], in the assay on D-threonine-aldolase, the “effect … of the novel enzyme” value was “activated and stabilized”.
Turning to `[Mn+2]` [Mn^2+], in the assay with D-threonine-aldolase, the “effect … of the novel enzyme” value is “activated and stabilized”.
As for `Cc1ncc(COP(=O)(O)O)c(C=O)c1O` [pyridoxal-5'-phosphate], the coenzyme result in the assay with L-allothreonine-aldolase is recorded as “Coenzyme”.
With `[Co+2]` [Co^2+], in the assay with D-threonine-aldolase, the “effect … of the novel enzyme” value was “activated and stabilized”.
On to `[Cu+2]` [Cu^2+], for which, in the assay with D-threonine-aldolase, the “effect … of the novel enzyme” value is “inhibited”. Besides, the “effect of the agent on L-allothreonine-aldolase” value in the assay on L-allothreonine-aldolase was “Inhibitants”.
In the case of `[Fe+2]` [Fe^2+], the “effect … of the novel enzyme” value with D-threonine-aldolase was “activated and stabilized”.
In the case of `O=S([O-])[O-].[Na+].[Na+]` [sodium sulfite], the “effect … of the novel enzyme” value with D-threonine-aldolase was “activated and stabilized”. The “effect of the agent on L-allothreonine-aldolase” value in the assay on L-allothreonine-aldolase is listed as “Stabilizers”.
With `O=C(O)c1cc[c]([Hg][Cl])cc1` [p-chloromercuribenzoate], the “effect … of the novel enzyme” value in the assay on D-threonine-aldolase is recorded as “inhibited”.
As for `[Mg+2]` [Mg^2+], the “effect … of the novel enzyme” value in the assay with D-threonine-aldolase is “activated and stabilized”.
Consider `[Ag+]` [Ag^+], for which the “effect … of the novel enzyme” value in the assay with D-threonine-aldolase is on record as “inhibited”. In addition, in the assay on L-allothreonine-aldolase, the “effect of the agent on L-allothreonine-aldolase” value is “Inhibitants”.
